Like-named read-outs stand apart in the source and are kept apart here. Starred links: 1 amine or outer side, 2 acyl side, 3 side chain; linkers in the order of their positions; H or OH if unused. Positions of bridges follow the written chain, without caps; N, C: chain ends. Residues, ends and D or L forms follow the SMILES beside them. Groups on a side chain read outwards from the residue. *: point of attachment. C20 diacid = O=C(O)CCCCCCCCCCCCCCCCCCC(=O)*; C18 diacid = O=C(O)CCCCCCCCCCCCCCCCC(=O)*; γGlu = O=C(O)[C@H](CCC(=O)[*:2])N[*:1]; AEEA = NCCOCCOCC(=O)O
Biological target: T1, Amylin 3(a) receptor (human calcitonin receptor (CTa) with RAMP-3) (Homo sapiens, UniProt O60896+P30988)
T1 construct: expressed in transfected cells; host or cells: BHK570 (baby hamster kidney) cells, stably transfected, with CRE-luciferase reporter
T1 sequence (O60896 24-148): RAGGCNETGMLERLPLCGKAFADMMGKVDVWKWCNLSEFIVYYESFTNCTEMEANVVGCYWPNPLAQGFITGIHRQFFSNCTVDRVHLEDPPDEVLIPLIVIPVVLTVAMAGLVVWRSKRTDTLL
T1 sequence (P30988 25-474): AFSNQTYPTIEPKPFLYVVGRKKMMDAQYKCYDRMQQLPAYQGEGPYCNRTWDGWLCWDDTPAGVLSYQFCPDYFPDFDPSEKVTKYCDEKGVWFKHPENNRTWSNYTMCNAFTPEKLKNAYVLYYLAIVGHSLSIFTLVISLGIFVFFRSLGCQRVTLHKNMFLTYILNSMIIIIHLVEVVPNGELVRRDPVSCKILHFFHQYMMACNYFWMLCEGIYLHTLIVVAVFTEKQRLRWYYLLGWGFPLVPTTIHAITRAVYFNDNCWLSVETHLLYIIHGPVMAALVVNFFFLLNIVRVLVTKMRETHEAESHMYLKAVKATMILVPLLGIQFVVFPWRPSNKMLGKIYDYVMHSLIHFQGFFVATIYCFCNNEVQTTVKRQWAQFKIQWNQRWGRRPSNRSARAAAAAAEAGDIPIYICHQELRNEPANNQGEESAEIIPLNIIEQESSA
Assay: Amylin luciferase assay (CRE-luciferase reporter in BHK Amylin 3(a)//CRE-luc cells)
Assay type: cell-based
Source text: It has previously been published (Poyner D R et al 2002, Pharmacological Reviews 54(2) 233-246) that activation of Amylin receptors (coexpression of Calcitonin receptor and receptor activity modifying peptides RAMPs) by Amylin leads to an increase in the intracellular concentration of cAMP. Consequently, transcription is activated at promotors containing multiple copies of the cAMP response element (CRE). It is thus possible to measure Amylin activity by use of a CRE luciferase reporter gene introduced into BHK cells also expressing an Amylin receptor.
2. Construction of an Amylin 3(a)/CRE-luc Cell Line
A BHK570 cell line stably transfected with the human calcitonin receptor (CTa) and a CRE-responsive luciferase reportergene. The cell line was further transfected with RAMP-3, using standard methods. This turns the Calcitonin receptor into an Amylin 3(a) receptor. Methotrexate, Neomycin, and Hygromycin are selection markers for luciferase, the Calcitonin receptor, and RAMP-3, respectively.
3. Amylin Luciferase Assay
To perform activity assays, BHK Amylin 3(a)//CRE-luc cells were seeded in white 96 well culture plates at a density of about 20.000 cells/well. The cells were in 100 μl growth medium (DMEM with 10% FBS, 1% Pen/Strep, 1 mM Na-pyruvate, 250 nM Methotrexate, 500 μg/ml Neomycin, and 400 μg/ml Hygromycin). After incubation overnight at 37° C. and 5% CO2, the growth medium was replaced by 50 μl/well assay medium (DMEM (without phenol red), Glumamax™, 10% FBS, and 10 mM Hepes, pH 7,4). Further, 50 μl/well of standard or sample in assay buffer were added. After 4 hours incubation at 37° C. and 5% CO2, the assay medium with standard or sample were removed and replaced by 100 μl/well PBS. Further, 100 μl/well LucLite™ was added. The plates were sealed and incubated at room temperature for 30 minutes. Finally, luminescence was measured on a TopCounter (Packard) in SPC (single photon counting) mode.

[1] = BHK570 cells with human calcitonin receptor (CTa), RAMP-3 and CRE-luciferase reporter, 4 hours incubation, read-out: Potency luciferase assay

EC50 [1]	Structure (SMILES)	EC50
0.06 nM	CC[C@H](C)[C@H](NC(=O)[C@@H]1CCCN1C(=O)CNC(=O)[C@H](Cc1ccccc1)NC(=O)[C@H](CC(N)=O)NC(=O)[C@H](CC(N)=O)NC(=O)[C@H](CO)NC(=O)[C@H](CO)NC(=O)[C@H](Cc1c[nH]cn1)NC(=O)[C@@H](NC(=O)[C@H](CC(C)C)NC(=O)[C@H](Cc1ccccc1)NC(=O)[C@H](CC(N)=O)NC(=O)[C@H](C)NC(=O)[C@H](CC(C)C)NC(=O)[C@H](CCCNC(=N)N)NC(=O)[C@H](CCC(N)=O)NC(=O)[C@@H](NC(=O)[C@H](C)NC(=O)[C@@H]1CSSC[C@H](NC(=O)[C@H](CCC(=O)O)NC(=O)[C@H](CCCNC(=N)N)NC(=O)[C@H](CCC(=O)O)NC(=O)[C@H](CCC(=O)O)NC(=O)CCCCCCCCCCCCCCCCC(=O)O)C(=O)N[C@@H](CC(N)=O)C(=O)N[C@@H]([C@@H](C)O)C(=O)N[C@@H](C)C(=O)N[C@@H]([C@@H](C)O)C(=O)N1)[C@@H](C)O)C(C)C)C(=O)N[C@@H](CC(C)C)C(=O)N1CCC[C@H]1C(=O)N1CCC[C@H]1C(=O)N[C@H](C(=O)N[C@@H](CC(N)=O)C(=O)N[C@H](C(=O)NCC(=O)N[C@@H](CO)C(=O)N[C@@H](CC(N)=O)C(=O)N[C@H](C(=O)N[C@@H](Cc1ccc(O)cc1)C(N)=O)[C@@H](C)O)C(C)C)[C@@H](C)O [Example 41, N-alpha-(17-carboxyheptadecanoyl)-Glu-Glu-Arg-[Glu1]pramlintide (1-37)] ({C18 diacid}-EERECNTATCATQRLANFLVHSSNNFGPILPPTNVGSNTY-NH2; disulfide 5-10; C-terminus assumed)	
0.3 nM	CC[C@H](C)[C@H](NC(=O)[C@H](CCCCNC(=O)COCCOCCNC(=O)COCCOCCNC(=O)CC[C@H](NC(=O)CC[C@H](NC(=O)CC[C@H](NC(=O)CC[C@H](NC(=O)CCCCCCCCCCCCCCCCC(=O)O)C(=O)O)C(=O)O)C(=O)O)C(=O)O)NC(=O)CNC(=O)[C@H](Cc1ccccc1)NC(=O)[C@H](CC(N)=O)NC(=O)[C@H](CC(N)=O)NC(=O)[C@H](CO)NC(=O)[C@H](CO)NC(=O)[C@H](Cc1c[nH]cn1)NC(=O)[C@@H](NC(=O)[C@H](CC(C)C)NC(=O)[C@H](Cc1ccccc1)NC(=O)[C@H](CC(N)=O)NC(=O)[C@H](C)NC(=O)[C@H](CC(C)C)NC(=O)[C@H](CCCNC(=N)N)NC(=O)[C@H](CCC(N)=O)NC(=O)[C@@H](NC(=O)[C@H](C)NC(=O)[C@@H]1CSSC[C@H](NC(=O)[C@@H](N)CCCCN)C(=O)N[C@@H](CC(N)=O)C(=O)N[C@@H]([C@@H](C)O)C(=O)N[C@@H](C)C(=O)N[C@@H]([C@@H](C)O)C(=O)N1)[C@@H](C)O)C(C)C)C(=O)N[C@@H](CC(C)C)C(=O)N1CCC[C@H]1C(=O)N1CCC[C@H]1C(=O)N[C@H](C(=O)N[C@@H](CC(N)=O)C(=O)N[C@H](C(=O)NCC(=O)N[C@@H](CO)C(=O)N[C@@H](CC(N)=O)C(=O)N[C@H](C(=O)N[C@@H](Cc1ccc(O)cc1)C(N)=O)[C@@H](C)O)C(C)C)[C@@H](C)O [Example 26, N-epsilon25-[2-(2-{2-[2-(2-{2-[(S)-4-carboxy-4-((S)-4-carboxy-4-{(S)-4-carboxy-4-[(S)-4-carboxy-4-(17-carboxyheptadecanoylamino)butyrylamino]butyrylamino}butyrylamino)butyrylamino]ethoxy}ethoxy)acetylamino]ethoxy}ethoxy)acetyl]-[Lys25]-pramlintide (1-37)] (H-KCNTATCATQRLANFLVHSSNNFGK([AEEA-AEEA-γGlu-γGlu-γGlu-γGlu-C18 diacid])ILPPTNVGSNTY-NH2; disulfide 2-7; N-terminus and C-terminus assumed)	
0.03 nM	CC(C)C[C@H](NC(=O)[C@H](CC(N)=O)NC(=O)[C@H](CC(N)=O)NC(=O)[C@H](CO)NC(=O)[C@H](CO)NC(=O)[C@H](CCCNC(=N)N)NC(=O)[C@@H](NC(=O)[C@H](CC(C)C)NC(=O)[C@H](Cc1ccccc1)NC(=O)[C@H](CC(N)=O)NC(=O)[C@H](C)NC(=O)[C@H](CC(C)C)NC(=O)[C@H](CCCNC(=N)N)NC(=O)[C@H](CCC(N)=O)NC(=O)[C@@H](NC(=O)[C@H](C)NC(=O)[C@@H]1CSSC[C@H](NC(=O)CC[C@H](NC(=O)CCCCCCCCCCCCCCCCC(=O)O)C(=O)O)C(=O)N[C@@H](CC(N)=O)C(=O)N[C@@H]([C@@H](C)O)C(=O)N[C@@H](C)C(=O)N[C@@H]([C@@H](C)O)C(=O)N1)[C@@H](C)O)C(C)C)C(=O)NCC(=O)N1CCC[C@H]1C(=O)N[C@H](C(=O)N[C@@H](CC(C)C)C(=O)N1CCC[C@H]1C(=O)N1CCC[C@H]1C(=O)N[C@H](C(=O)N[C@@H](CC(N)=O)C(=O)N[C@H](C(=O)NCC(=O)N[C@@H](CO)C(=O)N[C@@H](CC(N)=O)C(=O)N[C@H](C(=O)N[C@@H](Cc1ccc(O)cc1)C(N)=O)[C@@H](C)O)C(C)C)[C@@H](C)O)C(C)C [Example 16, N-alpha-[(S)-4-carboxy-4-(17-carboxyheptadecanoylamino)butyryl]-[Arg18,Leu23,Val26]-pramlintide (2-37)]	

The next lines start with the compound.

Structure (SMILES)	EC50 [1]	EC50
CC[C@H](C)[C@H](NC(=O)[C@@H]1CCCN1C(=O)CNC(=O)[C@H](Cc1ccccc1)NC(=O)[C@H](CC(N)=O)NC(=O)[C@H](CC(N)=O)NC(=O)[C@H](CO)NC(=O)[C@H](CO)NC(=O)[C@H](Cc1c[nH]cn1)NC(=O)[C@@H](NC(=O)[C@H](CC(C)C)NC(=O)[C@H](Cc1ccccc1)NC(=O)[C@H](CC(N)=O)NC(=O)[C@H](C)NC(=O)[C@H](CC(C)C)NC(=O)[C@H](CCCNC(=N)N)NC(=O)[C@H](CCC(N)=O)NC(=O)[C@@H](NC(=O)[C@H](C)NC(=O)[C@@H]1CSSC[C@H](NC(=O)[C@@H](N)CCCCN)C(=O)N[C@@H](CCCCNC(=O)COCCOCCNC(=O)COCCOCCNC(=O)CC[C@H](NC(=O)CCCCCCCCCCCCCCCCC(=O)O)C(=O)O)C(=O)N[C@@H]([C@@H](C)O)C(=O)N[C@@H](C)C(=O)N[C@@H]([C@@H](C)O)C(=O)N1)[C@@H](C)O)C(C)C)C(=O)N[C@@H](CC(C)C)C(=O)N1CCC[C@H]1C(=O)N1CCC[C@H]1C(=O)N[C@H](C(=O)N[C@@H](CC(N)=O)C(=O)N[C@H](C(=O)NCC(=O)N[C@@H](CO)C(=O)N[C@@H](CC(N)=O)C(=O)N[C@H](C(=O)N[C@@H](Cc1ccc(O)cc1)C(N)=O)[C@@H](C)O)C(C)C)[C@@H](C)O [Example 11, N-epsilon3-[2-(2-{2-[2-(2-{2-[(S)-4-carboxy-4-(17-carboxyheptadecanoylamino)butyrylamino]ethoxy}ethoxy)acetylamino]ethoxy}ethoxy)acetyl]-[Lys3]-pramlintide (1-37)] (H-KCK([AEEA-AEEA-γGlu-C18 diacid])TATCATQRLANFLVHSSNNFGPILPPTNVGSNTY-NH2; disulfide 2-7; N-terminus assumed)		0.2 nM
CC(C)C[C@H](NC(=O)[C@H](CC(N)=O)NC(=O)[C@H](CCC(N)=O)NC(=O)[C@H](CO)NC(=O)[C@H](CO)NC(=O)[C@H](CCCNC(=N)N)NC(=O)[C@@H](NC(=O)[C@H](CC(C)C)NC(=O)[C@H](Cc1ccccc1)NC(=O)[C@H](CC(N)=O)NC(=O)[C@H](C)NC(=O)[C@H](CC(C)C)NC(=O)[C@H](CCCNC(=N)N)NC(=O)[C@H](CCC(N)=O)NC(=O)[C@@H](NC(=O)[C@H](C)NC(=O)[C@@H]1CSSC[C@H](NC(=O)[C@H](CCC(=O)O)NC(=O)[C@H](CCCNC(=N)N)NC(=O)[C@H](CCC(=O)O)NC(=O)[C@H](CCC(=O)O)NC(=O)CCCCCCCCCCCCCCCCCCC(=O)O)C(=O)N[C@@H](CCC(N)=O)C(=O)N[C@@H]([C@@H](C)O)C(=O)N[C@@H](C)C(=O)N[C@@H]([C@@H](C)O)C(=O)N1)[C@@H](C)O)C(C)C)C(=O)NCC(=O)N1CCC[C@H]1C(=O)N[C@H](C(=O)N[C@@H](CC(C)C)C(=O)N1CCC[C@H]1C(=O)N1CCC[C@H]1C(=O)N[C@H](C(=O)N[C@@H](CC(N)=O)C(=O)N[C@H](C(=O)NCC(=O)N[C@@H](CO)C(=O)N[C@@H](CC(N)=O)C(=O)N[C@H](C(=O)N[C@@H](Cc1ccc(O)cc1)C(N)=O)[C@@H](C)O)C(C)C)[C@@H](C)O)C(C)C [Example 35, N-alpha-(19-carboxynonadecanoyl)-Glu-Glu-Arg-[Glu1,Gln3,Arg18,Gln21,Leu23,Val26]-pramlintide (1-37)] ({C20 diacid}-EERECQTATCATQRLANFLVRSSQNLGPVLPPTNVGSNTY-NH2; disulfide 5-10; C-terminus assumed)		0.09 nM

— patent US20100222269A1, “IMPROVED DERIVATIVES OF AMYLIN” (priority 2007, published 2010)
